Values quoted from earlier work as cited in patent US10201577B2, “Compositions and methods for enhancing working and long-term memory support using new combination of ginkgo biloba and panax ginseng and associated components” (KEYVIEW LABS, INC., priority 2017, dated 2019).

Columns and labels:
[1] = in vivo, po
[2] = test system: long term potentiation (LTP); details: in vivo
[3] = target: T1, choline acetyltransferase (Homo sapiens, UniProt P28329); details: isolated Rb1
T1 sequence (P28329 1-748): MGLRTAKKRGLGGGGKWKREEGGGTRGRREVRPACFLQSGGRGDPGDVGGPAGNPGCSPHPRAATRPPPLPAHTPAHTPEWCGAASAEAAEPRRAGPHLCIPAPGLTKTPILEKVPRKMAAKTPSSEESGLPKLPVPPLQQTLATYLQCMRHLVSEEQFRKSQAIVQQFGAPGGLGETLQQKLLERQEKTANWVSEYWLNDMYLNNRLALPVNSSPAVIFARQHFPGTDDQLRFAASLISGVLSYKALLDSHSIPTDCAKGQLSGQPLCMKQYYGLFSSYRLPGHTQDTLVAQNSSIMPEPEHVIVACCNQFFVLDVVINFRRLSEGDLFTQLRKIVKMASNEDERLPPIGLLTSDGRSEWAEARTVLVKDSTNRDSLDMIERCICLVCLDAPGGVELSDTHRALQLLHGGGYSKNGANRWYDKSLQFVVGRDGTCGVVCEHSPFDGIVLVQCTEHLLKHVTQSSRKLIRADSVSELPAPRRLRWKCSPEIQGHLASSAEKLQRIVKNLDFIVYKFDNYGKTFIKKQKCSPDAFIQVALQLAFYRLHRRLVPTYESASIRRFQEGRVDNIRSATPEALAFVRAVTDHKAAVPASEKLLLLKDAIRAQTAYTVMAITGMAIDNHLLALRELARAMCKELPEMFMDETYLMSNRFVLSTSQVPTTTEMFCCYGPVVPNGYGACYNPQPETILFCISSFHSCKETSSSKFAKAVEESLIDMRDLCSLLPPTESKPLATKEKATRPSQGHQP

acetylcholine release = details: isolated Rb1

Structure (SMILES): CC1C(=O)OC2C(O)C34C5CC(C(C)(C)C)C36C(OC(=O)C6O)OC4(C(=O)O5)C12O (centres unmarked) [Ginkgolide B]
- elimination half-life [1]: 4.31 ± 0.49 h
- time of peak plasma level [1]: around 2.25±0.45 hours

Structure (SMILES): CC(C)=CCC[C@](C)(O[C@@H]1O[C@H](CO[C@@H]2O[C@H](CO)[C@@H](O)[C@H](O)[C@H]2O)[C@@H](O)[C@H](O)[C@H]1O)[C@H]1CC[C@]2(C)[C@@H]1[C@H](O)C[C@@H]1[C@@]3(C)CC[C@H](O[C@@H]4O[C@H](CO)[C@@H](O)[C@H](O)[C@H]4O[C@@H]4O[C@H](CO)[C@@H](O)[C@H](O)[C@H]4O)C(C)(C)[C@@H]3CC[C@]12C [Rb1]
- long term potentiation (LTP) [2]: capable of in vivo modulation
- choline acetyltransferase activity [3]: stimulates
- acetylcholine release (acetylcholine release): stimulates
